Tests used:
[1] = tested on: Patients with Huntington's Disease; assay: Assessment of psychomotor speed (Psychomotor Vigilance Task Test, FIG. 5); type: in vivo, human; conditions: patients with HD, 1 mg
Description: FIG. 5 depicts performance measured using the Psychomotor Vigilance Task Test in Patients with Huntington's Disease and Healthy Participants. Z-Transformed Change from Baseline to Day 14 (Mean±SE) is depicted.
(§1) Additional objectives included an assessment of changes in subject performance on cognitive tasks.

[2] = Phase 1 MAD study: safety and tolerability of Compound 1 Oral Solution
Description: Subjects were assigned sequentially to one of 3 cohorts. […] Cohorts 1 and 2 were divided into 4 sub-groups of 3 subjects. Each sub-group in Part A started dosing on Day 1 over the course of 4 consecutive days, with the remaining dosing days overlapping in a staggered fashion. A maximum of 3 Part A subjects per calendar day per site will begin treatment at Day 1.
The Screening Period began with the signing of the informed consent form (ICF) at the Screening Visit. An optional genetic sample was collected during screening. On Day −2 (Part A) or Day −1 (Part B), qualified subjects were admitted to the unit. Subjects were discharged from the unit on Day 17 after completion of all assessments, provided that the Investigator was satisfied that it is safe for the subject to be discharged. In total, the inpatient stay for Part A subjects was approximately 19 days, and approximately 18 days for Part B subjects. Subjects returned for a Follow-up Visit on Day 21 (±2 days), approximately one week after the end of treatment.

Patients with HD = assay: Tests of executive functioning (Cogstate Battery); type: in vivo, human; conditions: 1 mg, FIGS. 1-4
Description: as §1
(§2) Cogstate Battery was used to assess cognitive functioning, such as attention, working memory, information processing speed, executive function, and motor skills, and consists of the Stop Signal Reaction Test (STOP), Detection Task (DET), Identification Task (IDN), One Back Learning Task (ONB), Two Back Learning Task (TWOB), and Groton Maze Learning Test (GML).
(§3) The endpoints for each Cogstate Battery tests are change from baseline scores at each post-baseline assessment.

[3] = tested on: subjects with early manifest Huntington's disease; assay: Cogstate Two Back Test (TWOB), working memory; type: in vivo, human; conditions: HD Subjects (Part B), 1 mg
Description: (§4) Sentinel dosing of subjects was employed for Cohort 3.
as §2, §3
(§5) Mean change from baseline scores at all post-baseline assessments were analyzed using mixed-effect repeated measure model (MMRM); with dose, visit, interaction between dose and visit as fixed effects, baseline as a covariate and subject as random effect. Unstructured covariance structure was used to model the variance-covariance matrix of the repeated measurements. If estimation issues arose during construction of covariance structure, compound symmetry was used in place of unstructured. The least square (LS) means differences between dose groups and placebo at each post baseline timepoint were estimated along with 95% confidence intervals.

[4] = tested on: subjects with early manifest Huntington's disease; assay: Cogstate Groton Maze Learning Test (GML), executive function; type: in vivo, human; conditions: HD Subjects (Part B), 1 mg, all timepoints except for day 4
Description: as §4, §2, §3, §5

[5] = healthy adults (0.5 mg or 1.0 mg) and subjects with early manifest HD, multiple oral doses

C[C@H](CC[C@](C)(O)C(F)(F)F)[C@H]1CC[C@H]2[C@@H]3CC=C4C[C@@](C)(O)CC[C@]4(C)[C@H]3CC[C@]12C [Compound 1]
Change from baseline on assessment of psychomotor speed [1]: No changes from baseline were observed
TEAEs in Part B ([2]; Part B, subjects with HD): No TEAEs were reported
Deaths [2, 5]: No deaths were reported
Serious AEs [2, 5]: No serious AEs were reported
TEAEs leading to study withdrawal or treatment discontinuation [2, 5]: No TEAEs leading to study withdrawal or treatment discontinuation were reported
Suicidal ideation or suicidal behavior compared to baseline, C-SSRS ([2]; measured by C-SSRS): no signals for increased suicidal ideation or suicidal behavior
Change from baseline on tests of executive functioning (Patients with HD): improvements from baseline
Performance on the two-back test vs baseline, statistical significance ([3]; Days 8-14, threshold p<0.05): significant improvement compared to baseline
Performance on the two-back test vs baseline ([3]; all timepoints after baseline): improvement in performance
Performance in the GML test vs baseline [4]: improvement

From US20250041317A1, “NEUROACTIVE STEROID FOR THE TREATMENT OF HUNTINGTON'S DISEASE” (SAGE THERAPEUTICS, INC., priority 2021, published 2025)
